{"source": "ChEMBL document CHEMBL5465560", "about": "“Selectivity Literature for EUbOPEN Chemogenomic Library” (2024)", "key": {"[1]": {"target": "Mitogen-activated protein kinase 14 (Homo sapiens, UniProt Q16539)", "sequence (Q16539 whole entry)": "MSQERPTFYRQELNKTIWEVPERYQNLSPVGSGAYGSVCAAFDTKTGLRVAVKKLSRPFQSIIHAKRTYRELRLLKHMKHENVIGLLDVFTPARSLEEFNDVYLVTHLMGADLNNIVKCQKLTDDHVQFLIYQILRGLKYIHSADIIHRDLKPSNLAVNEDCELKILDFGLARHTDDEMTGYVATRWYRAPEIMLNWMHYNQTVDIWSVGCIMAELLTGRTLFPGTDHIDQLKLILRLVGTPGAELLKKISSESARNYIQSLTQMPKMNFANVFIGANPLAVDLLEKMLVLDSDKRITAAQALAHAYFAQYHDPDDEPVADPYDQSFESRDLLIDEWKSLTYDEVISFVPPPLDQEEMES", "test": "Selectivity interaction (Ambit KINOMEscan and KiNATiv profiling in Jurkat cells) EUB0000090b MAPK14", "assay_type": "cell-based", "details": "at 1 µM"}, "[2]": {"target": "Serine/threonine-protein kinase pim-1 (Homo sapiens, UniProt P11309)", "sequence (P11309 whole entry, looked up)": "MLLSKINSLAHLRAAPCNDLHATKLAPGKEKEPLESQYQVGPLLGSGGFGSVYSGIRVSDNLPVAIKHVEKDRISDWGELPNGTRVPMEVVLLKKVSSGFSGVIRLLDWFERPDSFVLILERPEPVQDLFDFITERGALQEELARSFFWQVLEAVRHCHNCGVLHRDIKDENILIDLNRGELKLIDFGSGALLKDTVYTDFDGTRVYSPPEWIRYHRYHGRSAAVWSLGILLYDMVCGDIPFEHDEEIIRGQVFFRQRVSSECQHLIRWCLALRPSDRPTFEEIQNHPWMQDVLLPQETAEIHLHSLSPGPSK", "test": "Selectivity interaction (KinomeScan (DiscoverX)) EUB0000695a PIM1", "details": "at 100 nM"}, "[3]": {"target": "T1, Mitogen-activated protein kinase kinase kinase 12 (Homo sapiens) (UniProt Q12852)", "T1 sequence (whole entry)": "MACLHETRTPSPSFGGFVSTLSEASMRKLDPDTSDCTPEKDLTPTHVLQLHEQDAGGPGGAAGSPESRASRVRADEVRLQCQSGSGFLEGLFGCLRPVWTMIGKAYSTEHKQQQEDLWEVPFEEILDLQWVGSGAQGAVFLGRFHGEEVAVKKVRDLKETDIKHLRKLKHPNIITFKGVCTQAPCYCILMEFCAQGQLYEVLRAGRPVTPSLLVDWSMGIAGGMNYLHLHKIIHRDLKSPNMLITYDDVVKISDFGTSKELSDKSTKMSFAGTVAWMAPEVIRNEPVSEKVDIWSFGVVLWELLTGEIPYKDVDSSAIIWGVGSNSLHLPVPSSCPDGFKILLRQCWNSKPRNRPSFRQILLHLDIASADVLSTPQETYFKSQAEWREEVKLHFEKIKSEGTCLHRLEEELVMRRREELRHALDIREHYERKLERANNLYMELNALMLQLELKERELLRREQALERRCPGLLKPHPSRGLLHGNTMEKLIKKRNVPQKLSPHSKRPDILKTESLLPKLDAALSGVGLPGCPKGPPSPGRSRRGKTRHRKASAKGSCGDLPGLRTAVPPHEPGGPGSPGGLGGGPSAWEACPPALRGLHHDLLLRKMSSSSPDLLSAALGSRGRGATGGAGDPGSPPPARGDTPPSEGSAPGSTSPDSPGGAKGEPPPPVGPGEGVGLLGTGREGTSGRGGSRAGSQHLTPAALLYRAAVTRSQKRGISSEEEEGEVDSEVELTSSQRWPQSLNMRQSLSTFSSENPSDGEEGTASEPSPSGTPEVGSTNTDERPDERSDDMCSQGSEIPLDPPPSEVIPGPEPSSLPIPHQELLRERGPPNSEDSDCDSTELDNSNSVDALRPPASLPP", "details": "at 10 µM"}, "[4]": {"target": "T2, Muscle, skeletal receptor tyrosine-protein kinase (Homo sapiens) (UniProt O15146)", "T2 sequence (whole entry)": "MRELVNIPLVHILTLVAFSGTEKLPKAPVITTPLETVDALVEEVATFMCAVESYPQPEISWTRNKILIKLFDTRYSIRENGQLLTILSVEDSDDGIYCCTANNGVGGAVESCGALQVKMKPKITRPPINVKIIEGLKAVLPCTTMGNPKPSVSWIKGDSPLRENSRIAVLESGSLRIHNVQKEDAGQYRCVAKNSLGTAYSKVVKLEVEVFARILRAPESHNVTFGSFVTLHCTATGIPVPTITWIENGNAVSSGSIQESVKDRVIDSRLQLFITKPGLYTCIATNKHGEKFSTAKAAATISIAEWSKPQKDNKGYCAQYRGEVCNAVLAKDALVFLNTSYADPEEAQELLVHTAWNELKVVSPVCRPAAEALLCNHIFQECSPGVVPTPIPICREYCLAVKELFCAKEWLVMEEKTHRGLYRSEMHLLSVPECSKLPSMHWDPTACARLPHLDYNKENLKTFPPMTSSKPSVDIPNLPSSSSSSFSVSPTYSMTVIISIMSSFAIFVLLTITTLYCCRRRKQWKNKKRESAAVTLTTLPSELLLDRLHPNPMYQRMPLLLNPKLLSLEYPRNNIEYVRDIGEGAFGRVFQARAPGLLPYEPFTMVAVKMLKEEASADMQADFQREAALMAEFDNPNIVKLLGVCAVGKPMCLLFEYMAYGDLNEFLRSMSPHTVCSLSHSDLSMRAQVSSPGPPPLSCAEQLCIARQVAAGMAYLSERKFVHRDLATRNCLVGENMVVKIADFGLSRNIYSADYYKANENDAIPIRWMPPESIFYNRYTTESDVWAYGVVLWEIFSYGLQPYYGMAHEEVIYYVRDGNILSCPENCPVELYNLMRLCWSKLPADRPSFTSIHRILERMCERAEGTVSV", "details": "at 10 µM"}, "[5]": {"target": "Angiopoietin-1 receptor (Homo sapiens) (UniProt Q02763)", "sequence (Q02763 whole entry)": "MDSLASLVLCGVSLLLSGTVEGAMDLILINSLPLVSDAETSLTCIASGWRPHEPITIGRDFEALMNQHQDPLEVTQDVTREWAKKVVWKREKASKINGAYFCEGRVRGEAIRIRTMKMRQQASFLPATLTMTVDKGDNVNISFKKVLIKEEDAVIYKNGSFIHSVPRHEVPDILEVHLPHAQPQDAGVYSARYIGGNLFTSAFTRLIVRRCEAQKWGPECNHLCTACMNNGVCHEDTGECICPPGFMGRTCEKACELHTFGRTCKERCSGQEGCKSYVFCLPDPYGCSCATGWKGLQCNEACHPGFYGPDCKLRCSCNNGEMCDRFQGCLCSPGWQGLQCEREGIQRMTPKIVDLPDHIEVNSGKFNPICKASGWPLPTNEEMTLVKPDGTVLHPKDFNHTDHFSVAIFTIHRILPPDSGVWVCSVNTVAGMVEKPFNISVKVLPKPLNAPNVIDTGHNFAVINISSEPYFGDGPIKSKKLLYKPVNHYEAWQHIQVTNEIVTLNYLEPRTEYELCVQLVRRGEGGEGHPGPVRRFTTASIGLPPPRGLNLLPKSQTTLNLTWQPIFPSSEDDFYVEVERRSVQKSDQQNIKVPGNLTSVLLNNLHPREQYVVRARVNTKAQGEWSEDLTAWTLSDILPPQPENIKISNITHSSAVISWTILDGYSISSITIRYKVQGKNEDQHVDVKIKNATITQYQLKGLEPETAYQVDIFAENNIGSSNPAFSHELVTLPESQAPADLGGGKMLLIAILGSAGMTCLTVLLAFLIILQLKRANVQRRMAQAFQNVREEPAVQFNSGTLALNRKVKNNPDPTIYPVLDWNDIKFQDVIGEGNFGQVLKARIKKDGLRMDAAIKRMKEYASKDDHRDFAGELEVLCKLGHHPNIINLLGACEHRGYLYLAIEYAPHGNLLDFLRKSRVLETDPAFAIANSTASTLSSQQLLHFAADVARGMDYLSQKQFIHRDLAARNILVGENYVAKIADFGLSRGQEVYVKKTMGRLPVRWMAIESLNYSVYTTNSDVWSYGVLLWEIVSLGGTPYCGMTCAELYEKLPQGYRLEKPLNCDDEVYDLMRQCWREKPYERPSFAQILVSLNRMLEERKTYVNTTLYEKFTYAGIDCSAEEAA", "test": "Selectivity interaction (ProQinase) EUB0000171b TEK", "details": "at 1 µM"}, "[6]": {"target": "Non-receptor tyrosine-protein kinase TYK2 (Homo sapiens, UniProt P29597)", "sequence (P29597 whole entry)": "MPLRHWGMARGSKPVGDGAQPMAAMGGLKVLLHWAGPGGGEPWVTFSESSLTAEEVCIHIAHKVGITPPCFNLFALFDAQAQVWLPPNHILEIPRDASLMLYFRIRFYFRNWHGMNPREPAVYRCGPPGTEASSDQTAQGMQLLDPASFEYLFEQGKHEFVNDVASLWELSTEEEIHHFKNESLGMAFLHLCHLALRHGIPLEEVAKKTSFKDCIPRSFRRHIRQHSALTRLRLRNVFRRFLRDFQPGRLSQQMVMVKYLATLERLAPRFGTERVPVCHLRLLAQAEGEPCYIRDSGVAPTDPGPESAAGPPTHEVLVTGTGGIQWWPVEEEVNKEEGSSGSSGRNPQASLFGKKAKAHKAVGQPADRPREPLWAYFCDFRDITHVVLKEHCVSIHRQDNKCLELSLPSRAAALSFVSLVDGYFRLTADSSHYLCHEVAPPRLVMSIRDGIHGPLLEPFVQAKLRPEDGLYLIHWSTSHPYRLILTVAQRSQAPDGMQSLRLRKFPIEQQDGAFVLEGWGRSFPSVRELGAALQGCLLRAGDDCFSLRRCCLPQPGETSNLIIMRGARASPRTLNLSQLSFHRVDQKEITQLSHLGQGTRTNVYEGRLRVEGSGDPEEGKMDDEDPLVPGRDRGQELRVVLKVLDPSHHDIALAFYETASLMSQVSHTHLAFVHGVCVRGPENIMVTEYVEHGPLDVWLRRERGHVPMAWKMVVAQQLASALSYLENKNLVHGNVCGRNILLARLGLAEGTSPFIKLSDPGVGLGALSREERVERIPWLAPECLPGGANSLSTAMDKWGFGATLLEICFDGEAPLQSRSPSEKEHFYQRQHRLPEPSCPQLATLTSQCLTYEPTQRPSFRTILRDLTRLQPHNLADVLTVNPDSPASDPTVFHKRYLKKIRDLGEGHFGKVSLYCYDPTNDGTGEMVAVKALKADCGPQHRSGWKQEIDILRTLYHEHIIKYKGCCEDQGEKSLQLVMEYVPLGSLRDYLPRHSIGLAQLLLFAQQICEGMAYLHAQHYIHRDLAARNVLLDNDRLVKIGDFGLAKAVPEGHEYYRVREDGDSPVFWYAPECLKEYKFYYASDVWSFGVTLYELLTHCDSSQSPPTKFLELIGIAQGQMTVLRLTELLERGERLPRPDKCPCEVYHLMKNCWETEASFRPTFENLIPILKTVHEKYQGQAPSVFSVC", "test": "Selectivity interaction (KinomeScan (DiscoverX)) EUB0000092b TYK2", "details": "at 10 µM"}, "[7]": {"target": "T3, Serine/threonine-protein kinase TAO1 (Homo sapiens) (UniProt Q7L7X3)", "T3 sequence (whole entry)": "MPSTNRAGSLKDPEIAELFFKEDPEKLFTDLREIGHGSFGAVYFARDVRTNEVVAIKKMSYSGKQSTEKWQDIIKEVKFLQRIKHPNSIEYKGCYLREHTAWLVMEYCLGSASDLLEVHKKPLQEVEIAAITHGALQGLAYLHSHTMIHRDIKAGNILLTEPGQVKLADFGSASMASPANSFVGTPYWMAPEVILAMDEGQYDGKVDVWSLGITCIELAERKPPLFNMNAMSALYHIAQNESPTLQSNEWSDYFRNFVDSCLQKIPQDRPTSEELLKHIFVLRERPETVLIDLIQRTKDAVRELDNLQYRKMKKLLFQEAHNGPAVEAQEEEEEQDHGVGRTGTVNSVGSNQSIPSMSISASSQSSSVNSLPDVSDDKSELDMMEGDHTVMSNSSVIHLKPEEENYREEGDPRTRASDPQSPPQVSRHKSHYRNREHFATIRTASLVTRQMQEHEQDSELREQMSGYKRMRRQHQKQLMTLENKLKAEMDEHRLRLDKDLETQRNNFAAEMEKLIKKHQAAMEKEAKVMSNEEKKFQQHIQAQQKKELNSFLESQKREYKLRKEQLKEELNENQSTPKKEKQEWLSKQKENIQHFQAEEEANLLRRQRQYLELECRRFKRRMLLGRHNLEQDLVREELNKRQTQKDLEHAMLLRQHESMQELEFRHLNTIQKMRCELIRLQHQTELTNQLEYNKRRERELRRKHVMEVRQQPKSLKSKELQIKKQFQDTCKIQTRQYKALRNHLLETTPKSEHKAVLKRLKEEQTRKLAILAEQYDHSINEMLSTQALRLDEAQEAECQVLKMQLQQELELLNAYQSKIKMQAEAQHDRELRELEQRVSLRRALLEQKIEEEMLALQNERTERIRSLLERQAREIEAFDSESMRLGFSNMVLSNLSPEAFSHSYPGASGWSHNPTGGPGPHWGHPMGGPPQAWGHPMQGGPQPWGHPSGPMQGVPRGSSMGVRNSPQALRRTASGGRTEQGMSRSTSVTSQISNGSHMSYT", "test": "Selectivity interaction (ActivX KiNativ screen (ex vivo kinase selectivity in human PBMCs)) EUB0001619a TAOK1", "assay_type": "cell-based", "details": "PBMC, at 1 µM"}}}
{"smiles": "CN(C)C/C=C/C(=O)Nc1ccc(C(=O)N2CCCC(Nc3ncc(Cl)c(-c4c[nH]c5ccccc45)n3)C2)cc1", "note": "(configuration not stated)", "values": [{"measurement": "% of control", "setting": "[1]", "value": 92, "unit": "%"}]}
{"smiles": "Cc1cc(F)c(C(=O)Nc2cccc(-c3nncn3C(C)C)n2)cc1-n1cnc(C2CC2)c1", "values": [{"measurement": "% of control", "setting": "[2]", "value": 100, "unit": "%"}]}
{"smiles": "CCN(CC)CCCCNc1ncc2cc(-c3cc(OC)cc(OC)c3)c(NC(=O)NC(C)(C)C)nc2n1", "values": [{"measurement": "% of control", "setting": "[3]", "value": 100, "unit": "%"}, {"measurement": "% of control", "setting": "[4]", "value": 100, "unit": "%"}]}
{"smiles": "C=CC(=O)Nc1cccc(C(=O)Nc2ccc(Nc3cc(-c4[nH]c(SC)nc4C)ccn3)cc2)c1", "values": [{"measurement": "% of control", "setting": "[5]", "value": 95, "unit": "%"}]}
{"smiles": "CCC(=O)N1CCN(c2ccc(-n3c(=O)ccc4cnc5ccc(-c6cnc7ccccc7c6)cc5c43)cc2C(F)(F)F)CC1", "values": [{"measurement": "% of control", "setting": "[6]", "value": 55, "unit": "%"}]}
{"smiles": "N#Cc1cccc(-c2c[nH]c3ncnc(N4CCOCC4)c23)c1", "values": [{"measurement": "% of inhibition", "setting": "[7]", "value": 6, "unit": "%"}]}
